Reference: PubChem BioAssay AID298 (DTP/NCI, 2004)
Values joined by “and” are separate entries in the source; they are usually repeats but may differ in a detail not shown here. Equal values may be shown once. Records with an inconclusive call do not appear.

System: MX-1 breast xenograft, intrarenal, nude mice, tumor weight
Experiment: NCI In Vivo Anticancer Drug Screen. Data for tumor model Human Mammary Carcinoma MX-1 Xenograft (intrarenal inoculation) in NU/NU BALB/C (nude) mice
Conditions: endpoint: mean tumor weight change, higher = larger tumour
How it was run: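 T/C readout: treated-group measurement over vehicle-control measurement, using tumor size or survival in tumor-bearing mice.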

[1] = dose: 150.0 mg/kg/injection, schedule: Q04DX003 (ip), vehicle: saline with Tween-80
[2] = dose: 300.0 mg/kg/injection, schedule: Q04DX003 (ip), vehicle: saline with Tween-80
[3] = dose: 50.0 mg/kg/injection, schedule: Q04DX003 (ip), vehicle: saline with Tween-80

With C[CH2][Sn]([Cl])([CH2]C)[c]1cc[c]([Sn]([Cl])([CH2]C)[CH2]C)cc1 the T/C (dose: 0.25 mg/kg/injection, schedule: Q04DX003 (ip), vehicle: Klucel (hydroxypropylcellulose) (HPC)) was 103 % of control, the T/C (dose: 0.5 mg/kg/injection, schedule: Q04DX003 (ip), vehicle: Klucel (hydroxypropylcellulose) (HPC)) was 109 % of control and the T/C (dose: 1.0 mg/kg/injection, schedule: Q04DX003 (ip), vehicle: Klucel (hydroxypropylcellulose) (HPC)) was 95 % of control.
CNC(=O)Sc1ccc(C)c(N(C)C)c1 was tested, and the T/C [1] was 92 % of control and the T/C [2] was 44 % of control.
In the case of CCC1(O)C(=O)OCc2c1cc1n(c2=O)Cc2cc3cc(N)ccc3nc2-1 (stereo not drawn), the T/C (dose: 1.88 mg/kg/injection, schedule: Q04DX003 (ip), vehicle: suspension in saline) is reported as 5 % of control, the T/C (dose: 3.75 mg/kg/injection, schedule: Q04DX003 (ip), vehicle: suspension in saline) is reported as 1 % of control and the T/C (dose: 7.5 mg/kg/injection, schedule: Q04DX003 (ip), vehicle: suspension in saline) is reported as -100 % of control. For the same molecule, the T/C (dose: 15.0 mg/kg/injection, schedule: Q04DX003 (ip), vehicle: suspension in saline) was -100 % of control.
With COc1cc(/C=C/[N+](=O)[O-])cc(Br)c1OC the T/C (dose: 6.25 mg/kg/injection, schedule: Q04DX003 (ip), vehicle: saline with Tween-80) was 81 % of control, the T/C (dose: 12.5 mg/kg/injection, schedule: Q04DX003 (ip), vehicle: saline with Tween-80) was 104 % of control and the T/C (dose: 25.0 mg/kg/injection, schedule: Q04DX003 (ip), vehicle: saline with Tween-80) was 92 % of control and 105 % of control. The T/C [3] was 96 % of control.
With NC(=O)c1[nH]cnc1O the T/C [3] was 96 % of control, the T/C (dose: 100.0 mg/kg/injection, schedule: Q04DX003 (ip), vehicle: saline with Tween-80) was 112 % of control and 119 % of control and the T/C (dose: 400.0 mg/kg/injection, schedule: Q04DX003 (ip), vehicle: saline with Tween-80) was 81 % of control. For the same molecule, the T/C (dose: 800.0 mg/kg/injection, schedule: Q04DX003 (ip), vehicle: saline with Tween-80) was 69 % of control.
CNc1ncn(-c2c(C)cccc2C)c(=O)n1 was tested, and the T/C [1] was 92 % of control and 97 % of control, the T/C [2] was 77 % of control and the T/C (dose: 600.0 mg/kg/injection, schedule: Q04DX003 (ip), vehicle: saline with Tween-80) was 25 % of control.
CNc1nc(NC)nc(NC)n1 was tested, and the T/C (dose: 12.5 mg/kg/injection, schedule: Q01DX010 (sc), vehicle: Klucel (hydroxypropylcellulose) (HPC)) was 156 % of control, the T/C (dose: 25.0 mg/kg/injection, schedule: Q01DX010 (sc), vehicle: Klucel (hydroxypropylcellulose) (HPC)) was 152 % of control and the T/C (dose: 50.0 mg/kg/injection, schedule: Q01DX010 (sc), vehicle: Klucel (hydroxypropylcellulose) (HPC)) was 122 % of control. The T/C (dose: 100.0 mg/kg/injection, schedule: Q01DX010 (sc), vehicle: Klucel (hydroxypropylcellulose) (HPC)) was 83 % of control.
In the case of Cn1c(-c2ccc(/C=N\N3CCN(/N=C/c4ccc(-c5c[n+]6ccsc6n5C)cc4)CC3)cc2)c[n+]2ccsc12, the T/C (dose: 3.0 mg/kg/injection, schedule: Q04DX003 (ip), vehicle: saline with Tween-80) is reported as 79 % of control.
With O=S(CCCl)CCCl the T/C (dose: 25.0 mg/kg/injection, schedule: Q04DX003 (sc), vehicle: Klucel (hydroxypropylcellulose) (HPC)) was 94 % of control and the T/C (dose: 50.0 mg/kg/injection, schedule: Q04DX003 (sc), vehicle: Klucel (hydroxypropylcellulose) (HPC)) was 92 % of control.
With O=C(O)CC(=O)O.[NH-]C1CCCCC1[NH-].[Pt+2] (stereo not drawn) the T/C (dose: 10.0 mg/kg/injection, schedule: Q01DX010 (sc), vehicle: dextrose) was 93 % of control, the T/C (dose: 20.0 mg/kg/injection, schedule: Q01DX010 (sc), vehicle: dextrose) was 92 % of control and the T/C (dose: 30.0 mg/kg/injection, schedule: Q01DX010 (sc), vehicle: dextrose) was -84 % of control. The T/C (dose: 40.0 mg/kg/injection, schedule: Q01DX010 (sc), vehicle: dextrose) was 83 % of control, the T/C (dose: 60.0 mg/kg/injection, schedule: Q01DX010 (sc), vehicle: dextrose) was -86 % of control and the T/C (dose: 80.0 mg/kg/injection, schedule: Q01DX010 (sc), vehicle: dextrose) was 74 % of control.
CN(C)/N=N/c1nc[nH]c1C(N)=O was tested, and the T/C (dose: 50.0 mg/kg/injection, schedule: Q04DX003 (ip), vehicle: Klucel (hydroxypropylcellulose) (HPC)) was 74 % of control, the T/C (dose: 75.0 mg/kg/injection, schedule: Q04DX003 (ip), vehicle: Klucel (hydroxypropylcellulose) (HPC)) was 87 % of control and the T/C (dose: 112.0 mg/kg/injection, schedule: Q04DX003 (ip), vehicle: Klucel (hydroxypropylcellulose) (HPC)) was 82 % of control. The T/C (dose: 200.0 mg/kg/injection, schedule: Q01DX010 (sc), vehicle: Klucel (hydroxypropylcellulose) (HPC)) was 70 % of control and the T/C (dose: 400.0 mg/kg/injection, schedule: Q01DX010 (sc), vehicle: Klucel (hydroxypropylcellulose) (HPC)) was 14 % of control.
